# Read-outs that look alike come from different tables or passages of the source.
# Tests used:
# [1] = Solubility measurement at pH 7.4; type: physicochemical; conditions: aqueous buffer, thermodynamic from solid, phosphate buffer pH 7.4, room temperature
# Method: Nitrone compounds (>3 mg) of this invention were mixed with a phosphate buffer at pH 7.4 to make a >0.3 mg/mL mixture. The mixture was vortexed for more than 2 hours and equilibrated over 12 hours at room temperature. The equilibrated mixture was used to saturate a 0.45 μm Tuffryn syringe filter. After saturating, the remainder of the mixture was filtered through the saturated filter. The filtrate was diluted by 1, 10, 100, and 1000 fold and analyzed using a LC/MS/MS method with standard curve ranging from 1 to 1000 ng/mL.
# [2] = Microsomal stability in human liver microsomes; type: in vitro ADME; conditions: NADPH, 37° C.
# Method: Frozen Sprague-Dawley rat liver microsomes (RLM) were thawed on ice and gently mixed before use. The final reaction mixture consisted of a nitrone compound of this invention (at ˜500 ng/ml), 1 mM NADPH, and 0.5 mg/ml of RLM protein in 0.1 M PBS (pH7.4), with organic solvent concentration not exceeding 1% (v/v). Per set of incubations, a positive control compound was included. The mixture was first pre-incubated 3 to 5 minutes at 37° C. without NADPH, and the reaction was then initialized by the addition of NADPH and incubated at 37° C. for up to 30 minutes. An aliquot of the reaction mixture was sampled at the initiation of the reaction and at designated time after reaction started. The drawn samples were quenched with acetonitrile, diluted with mobile phase to ensure the detection of test article in the linear range, and analyzed by LC/MS/MS. Half-life or percentage of remaining nitrone compound was calculated using standard methods. A similar method, or a slight variation of it, was used to test the stability of nitrones in human liver microsomes (HLM).
# [3] = DPPH free radical-scavenging/antioxidant assay; type: biochemical; conditions: 50 μM DPPH in 80% methanol; 24 h time point; read-out: EC50 (concentration at which a compound reduces by 50% the peak absorbance of DPPH at 520 nm)
# Method: Nitrone compounds of the present invention were tested for their free-radical scavenging/antioxidant activity in an in vitro assay that is accepted by those skilled in the art as a model for conditions involving the generation of free radicals. The assay is based on a reaction between a free-radical donor, 2,2-diphenyl-1-picrylhydrazyl (DPPH), and a radical scavenger/antioxidant to be tested for free-radical scavenging activity. Upon donation of the free-radical electron to the purported radical scavenger, the peak visible absorbance of DPPH (515-520 nm) decreases so that optical density readings at this part of the visual spectrum reflect the progression of the following reaction:
# where AH is a hypothetical radical scavenger/antioxidant. The assay is based on a protocol originally detailed in Brand-Williams, W. et al., 1995, Use of a Free Radical Method to Evaluate Antioxidant Activity, Lebensm. Wiss. Technol., 28:25-30, with further modifications described in L. R. Fukumoto and G. Mazza, 2000, Assessing Antioxidant and Prooxidant Activities of Phenolic Compounds, J. Agric. Food Chem., 48:3597-3604.
# The antioxidant assay was performed using Perkin-Elmer 96-well, clear-bottom, black-wall plates (ordered from E & K Scientific Products) and a Tecan Safire absorbance plate reader. The positive controls were Trolox (6-hydroxy-2,5,7,8-tetramethylchromane-2-carboxylic acid, Sigma-Aldrich), BHA (2(3)-tert-butylhydroquinone monomethyl ether, Sigma-Aldrich), PBN (C-(phenyl)-N-(tert-butyl)nitrone, Sigma-Aldrich) and S-PBN (C-(2-sulfophenyl)-N-(tert-butyl)nitrone, sodium salt, prepared according to E. G. Janzen and R. V. Shetty, 1979, Tetrahedron Lett., 35: 3229-32), and the negative control (i.e., vehicle) was DMSO. In brief, 2 μL of 100× DMSO stock of the desired final concentration of each control or nitrone compound to be tested in the same batch was added to a separate well. To each well was then added 198 μL of a freshly made 50 μM DPPH (Sigma-Aldrich) solution in 80% methanol using a multi-channel pipette. The absorbance was immediately read on the plate reader at 520 nm and thereafter read periodically to assess kinetics until all reactions reached completion (i.e., steady state). Since the steady-state point was 24 h, the assay results are shown from the 24 h time point. The absorbance at 520 nm (OD) was plotted versus the concentrations of the controls and nitrone compounds to assess dose-response and interpolate the EC50 values of the controls and test compounds.
# [4] = read-out: Solubility @ pH 7.4 (μg/mL)
SMILES,solubility ([1]; read-out: Solubility @ pH 7.4) [µM],"solubility [1, 4] [µg/mL]",% of Nitrone Remaining at 30 min (Human) [2] [%],EC50 [3] [µM]
O=S(=O)(c1ccccc1/C=[N+](\[O-])C1CCCCC1)N1CCOCC1 [Compound 36],584,206,24.2,> 1000
O=S(=O)(c1ccccc1/C=[N+](\[O-])Cc1ccccc1)N1CCOCC1 [Compound 37],5020,1810,65.4,100 to 500
"CN1CCN(S(=O)(=O)c2ccccc2/C=[N+](\[O-])C(C)(C)C)CC1 [Compound 38, N-tert-Butyl-C-[2-(4-methyl-piperazine-1-sulfonyl)phenyl]nitrone]",> 1860,> 632,76.6,> 1000
"CN1CCN(S(=O)(=O)c2ccccc2/C=[N+](\[O-])C2CCCCC2)CC1 [Compound 39, N-Cyclohexyl-C-[2-(4-methyl-piperazine-1-sulfonyl)phenyl]nitrone]",> 2630,> 962,41.9,> 1000
"CN1CCN(S(=O)(=O)c2ccccc2/C=[N+](\[O-])Cc2ccccc2)CC1 [Compound 40, N-Benzyl-C-[2-(4-methyl-piperazine-1-sulfonyl)phenyl]nitrone]",> 2280,> 851,27.9,> 1000
CN(c1ccccc1)S(=O)(=O)c1ccccc1/C=[N+](\[O-])C(C)(C)C [Compound 41],413,143,0,> 1000
"CC(C)(C)/[N+]([O-])=C/c1ccccc1S(=O)(=O)N1CCCc2ccccc21 [Compound 44, N-tert-Butyl-C-[2-(3,4-dihydro-2H-quinoline-1-sulfonyl)phenyl]nitrone]",156,58.1,0,> 1000
"O=S(=O)(c1ccccc1/C=[N+](\[O-])C1CCCCC1)N1CCCc2ccccc21 [Compound 45, N-Cyclohexyl-C-[2-(3,4-dihydro-2H-quinoline-1-sulfonyl)phenyl]nitrone]",3.5,1.42,0,> 1000
"O=S(=O)(c1ccccc1/C=[N+](\[O-])Cc1ccccc1)N1CCCc2ccccc21 [Compound 46, N-Benzyl-C-[2-(3,4-dihydro-2H-quinoline-1-sulfonyl)phenyl]nitrone]",5.26,2.14,0,> 1000
"CS(=O)(=O)c1ncccc1/C=[N+](\[O-])C1CCCCC1 [Compound 76, N-Cyclohexyl-C-(2-methanesulfonyl-pyridine-3-yl)nitrone]",> 4070,> 1150,90.5,> 1000
